Experimental data as given in US11447486B2, “2-amino-benzimidazole derivatives and their use as 5-lipoxygenase and/or prostaglandin E synthase inhibitors” (INSTITUT PASTEUR KOREA, priority 2014, dated 2022).
Read-outs that look alike come from different tables or passages of the source.

Assays:
human 5-LOX = biological target: T1, human 5-LOX (Homo sapiens, UniProt P09917); experiment: 5-LOX enzyme activity, fluorescence method (5-HPETE, H2DCFDA); format: biochemical; details: read-out: 5-LO (IC50)
T1 construct: purchased Cayman 60402; host or cells: insect cells (lysate)
T1 sequence (P09917 1-674): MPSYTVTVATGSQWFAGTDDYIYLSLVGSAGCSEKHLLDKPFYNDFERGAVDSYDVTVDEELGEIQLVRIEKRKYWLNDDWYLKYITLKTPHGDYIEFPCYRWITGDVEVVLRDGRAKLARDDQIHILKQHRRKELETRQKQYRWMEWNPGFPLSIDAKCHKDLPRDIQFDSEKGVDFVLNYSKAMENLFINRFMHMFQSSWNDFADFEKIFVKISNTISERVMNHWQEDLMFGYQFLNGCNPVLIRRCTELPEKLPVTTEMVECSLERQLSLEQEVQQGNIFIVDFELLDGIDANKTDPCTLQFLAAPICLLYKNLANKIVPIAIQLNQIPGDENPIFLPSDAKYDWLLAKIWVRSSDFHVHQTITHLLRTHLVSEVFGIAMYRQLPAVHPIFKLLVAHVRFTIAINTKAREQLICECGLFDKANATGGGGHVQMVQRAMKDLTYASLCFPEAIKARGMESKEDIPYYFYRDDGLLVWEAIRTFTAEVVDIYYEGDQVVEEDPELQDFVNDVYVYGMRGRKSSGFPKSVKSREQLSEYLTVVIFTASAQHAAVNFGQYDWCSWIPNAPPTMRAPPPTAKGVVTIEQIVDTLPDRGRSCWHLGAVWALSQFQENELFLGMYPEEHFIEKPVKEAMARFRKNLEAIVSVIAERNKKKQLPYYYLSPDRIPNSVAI
Protocol: The activity of compounds against 5-LOX were determined by measuring LTB4 (leukotriene B4) levels and/or by a fluorescence method. Both approaches are outlined in more detail below;
The compound, in a dose response manner(0.5 nM to 10 uM), and enzyme mixture was pre-incubated for 5 minutes, and the enzymatic reaction was initiated by addition of ATP and arachidonic acid to a final concentration of 100 uM and 3 uM, respectively. […] All steps were carried out at room temperature.

[1] = test system: Rat basophilic leukemia (RBL) cells; experiment: LTB4 secretion assay in RBL (rat basophilic leukemia cells); format: cell-based
Protocol: Rat basophilic leukemia (RBL) cells (ATCC, Cat #CRL-2256) were maintained in EMEM (ATCC, Cat #30-2003) supplemented with 15% FBS. The day before RBL assay, cells were seeded at a concentration of 2×10^4 cells per well in 96-well plates. The media was replaced with 100 ul of EMEM supplemented with 0.5% FBS and compounds in dose response(5 nM to 100 uM) were added. After 15 min of pre-incubation at 37° C., arachidonic acid and calcium ionophore (A23187) were added to give a final concentration of 2.5 uM and 5 uM, respectively. After a further 10 min incubation at 37° C., culture supernatant was transferred and quantification of LTB4 was done with a Leukotriene B4 EIA kit (Cayman, Cat #520111) as instructed.

Row | SMILES | IC50 (human 5-LOX) [µM] | EC50 ([1]; Rattus norvegicus, RBL) [µM] | EC50 [1] [µM]
1 | Cn1c(N2CCC(C(=O)Nc3ccc(OC(F)(F)F)cc3)C2)nc2ncc(N)cc21 (stereo not drawn) [Compound 76] | < 1 | > 20 | 
2 | CCn1c(NCc2ccc(Oc3ncc(C(F)(F)F)cn3)cc2)nc2ccc(Nc3cc(C(F)(F)F)n(C)n3)cc21 [Compound 521] | 1 to 10 | < 10 | 
3 | CC(Nc1ccc2[nH]c(N(C)C)nc2c1)c1ccc(Oc2ccc(Cl)cc2)cc1 (stereo not drawn) [Compound 131] | < 1 | < 10 | 
4 | Cc1cc(Nc2ccc3nc(NCc4ccc(Oc5ncc(Cl)cn5)cc4)[nH]c3c2)n[nH]1 [Compound 485] | < 1 | 10 to 20 | 
5 | Cc1cnc(Oc2ccc(CNc3nc4ccc(N)cc4n3C)cc2)nc1 [Compound 348] | < 1 | > 20 | 
6 | CC(c1ccc(Oc2ccc(Cl)cn2)cc1)n1c(N)nc2ccc(N)cc21 (stereo not drawn) [Compound 247] | < 1 | < 10 | 
7 | Nc1ccc2nc(-n3cc(F)cn3)n(CCOc3ccc(OC(F)(F)F)cc3)c2c1 [Compound 78] | > 10 | 10 to 20 | 
8 | CN(C)c1nc2ccc(Nc3ccn(C)n3)cc2n1CCOc1ccc(OC(F)(F)F)cc1 [Compound 45] | > 10 | < 10 | 
9 | Cn1c(NCc2ccc(Oc3ncc(OC(F)(F)F)cn3)cc2)nc2ccc(N)cc21 [Compound 410] | < 1 | < 10 | 
10 | Cc1cc(CNc2nc3ccc(NC4COC4)cc3n2C)ccc1Oc1ccc(Cl)cn1 [Compound 283] | < 1 | < 10 | 
11 | Cn1c(NCc2cc(Cl)c(Oc3ncc(Cl)cn3)cc2Cl)nc2ccc(N)cc21 [Compound 432] | < 1 | < 10 | 
12 | Fc1ccc(OC2CCN(c3nc4cc(NC5COC5)ccc4[nH]3)CC2)cc1 [Compound 36] | < 1 | 10 to 20 | 
13 | Cn1c(NCCOc2ccc(Cl)c(Cl)c2)nc2ccc(N)cc21 [Compound 60] | < 1 | < 10 | 
14 | Cn1c(NCc2ccc(Oc3ncc(Cl)cc3Cl)cc2)nc2ccc(NC3COC3)cc21 [Compound 322] | > 10 | < 10 | 
15 | Cn1c(NCc2ccc(Oc3ncc(Cl)cn3)cc2)nc2ccc(NC3CSC3)cc21 [Compound 366] | < 1 | < 10 | 
16 | Cn1c(NCc2ccc(Oc3ncc(Cl)cn3)cc2)nc2ccc(Nc3n[nH]cc3C(N)=O)cc21 [Compound 488] | 1 to 10 | > 20 | 
17 | Cn1c(NCc2ccc(Oc3ncc(N)cn3)cc2)nc2ccc(N)cc21 [Compound 376] | < 1 | > 20 | 
18 | CN(C)c1nc2ccc(NC3COC3)cc2n1CCOc1ccc(Cl)cc1 [Compound 40] | < 1 | 10 to 20 | 
19 | CN(c1ccc(CNc2nc3ccc(N)cc3n2C)cc1)c1ncc(Cl)cn1 [Compound 463] | < 1 | < 10 | 
20 | Nc1ccc2nc(NCC(Oc3ccc(Cl)cc3)c3ccccc3)[nH]c2c1 (stereo not drawn) [Compound 169] | < 1 | < 10 | 
21 | Cn1c(N(CCO)Cc2ccc(Oc3ccc(Cl)cn3)cc2)nc2ccc(N)cc21 [Compound 317] | < 1 | > 20 | 

Row | SMILES | IC50 (human 5-LOX) [µM] | EC50 ([1]; Rattus norvegicus, RBL) [µM] | EC50 [1] [µM]
22 | Nc1ccc2nc(N3CCC(F)(F)C3)n(CCOc3ccc(OC(F)(F)F)cc3)c2c1 [Compound 100] | < 1 | < 10 | 
23 | Cc1cc(Oc2ncc(Cl)cn2)cc(C)c1CNc1nc2ccc(N)cc2n1C [Compound 385] | < 1 | 10 to 20 | 
24 | CCC(Nc1nc2cc(N)ccc2[nH]1)c1ccc(Oc2ccc(Cl)cc2)cc1 (stereo not drawn) [Compound 124] | < 1 | < 10 | 
25 | CN(C)c1nc2cc(NCc3ccc(CC(N)=O)cc3)ccc2[nH]1 [Compound 232] | < 1 | > 20 | 
26 | CCn1c(NCc2ccc(Oc3ncc(Cl)cn3)cc2)nc2ccc(Nc3cc(C(F)(F)F)n(C)n3)cc21 [Compound 510] | > 10 |  | < 10
27 | Nc1ccc2[nH]c(NCc3ccc(N4CCOC(COc5ccc(OC(F)(F)F)cc5)C4)nc3)nc2c1 (stereo not drawn) [Compound 222] | < 1 | 10 to 20 | 
28 | Cn1c(NCc2ccc(Oc3ccc(Cl)cc3)cc2)nc2ccc(N3CC(O)C3)cc21 [Compound 192] | < 1 | < 10 | 
29 | OCC(O)CNc1ccc2nc(NCc3ccc(Oc4ccc(Cl)cc4)cc3)[nH]c2c1 (stereo not drawn) [Compound 215] | < 1 | < 10 | 
30 | O=S(=O)(c1ccc(Cl)cc1)c1ccc(CNc2nc3cc(NC4COC4)ccc3[nH]2)cc1 [Compound 133] | < 1 | 10 to 20 | 
31 | Cn1c(NCc2ccc(Oc3ccnc4cc(Cl)ccc34)cc2)nc2ccc(NC3COC3)cc21 [Compound 384] | < 1 | < 10 | 
32 | Cn1c(NCc2ccc(Oc3nc4cc(Cl)ccc4o3)cc2)nc2ccc(N)cc21 [Compound 402] | < 1 | < 10 | 
33 | Nc1ccc2nc(N)n(Cc3ccc(OCc4ccc(Cl)cn4)cc3)c2c1 [Compound 254] | < 1 | < 10 | 
34 | Cn1c(NCc2ccc(Oc3ccc4ccc(Cl)cc4n3)cc2)nc2ccc(NC3COC3)cc21 [Compound 420] | < 1 | < 10 | 
35 | CC(C)c1cc(CNc2nc3ccc(N)cc3n2C)ccc1Oc1ncc(Cl)cn1 [Compound 395] | < 1 | < 10 | 
36 | Nc1nc2ccc(N3CCC(Oc4ccc(OC(F)(F)F)cc4)C3)cc2[nH]1 (stereo not drawn) [Compound 63] | < 1 | 10 to 20 | 
37 | Cc1cc(Nc2cc(Cl)c3nc(NCc4ccc(Oc5ncc(Cl)cn5)cc4)n(C)c3c2)n[nH]1 [Compound 556] | < 1 | < 10 | 
38 | CN(C)C(=O)c1cnc(Oc2ccc(CNc3nc4ccc(N)cc4n3C)cc2)nc1 [Compound 456] | < 1 | > 20 | 
39 | COC(c1ccc(CNc2nc3ccc(N)cc3[nH]2)cc1)c1ccccn1 (stereo not drawn) [Compound 181] | < 1 | > 20 | 
40 | Nc1ccc2nc(N3CCC(C(=O)c4ccc(OC(F)(F)F)cc4)C3)[nH]c2c1 (stereo not drawn) [Compound 178] | < 1 | 10 to 20 | 
41 | CN(C)c1nc2ccc(N)cc2n1CCOc1ccc(Cl)cc1 [Compound 39] | < 1 | 10 to 20 | 
42 | Nc1ccc2c(c1)nc(N1CCCC1)n2CCc1ccc(F)cc1 [Compound 50] | 1 to 10 | 10 to 20 | 
